Here are results for 1 compound from paper PMC11191095, “QSAR Reveals Decreased Lipophilicity of Polar Residues Determines the Selectivity of Antimicrobial Peptide Activity” (ACS Omega, 2024).

Where a SMILES comes first, the peptide text is derived from it.

In one data set the test system is P. aeruginosa NCTC 13437. Nature of the data set: microbe, parasite or virus in culture. It is filed as cell-based, Pseudomonas aeruginosa. The note with it: P. aeruginosa NCTC 13437 (R). In outline: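 Peptides 128→2 μg/mL, 2-fold series; inoculum ~5 × 10^5 CFU/mL from overnight culture (OD600 0.01, mixed 1:1). MHB non-cation-adjusted for bacteria, RPMI 1640 + 2% glucose for fungi. 37 °C, 20 h, OD600. MIC50/MIC90 at 50%/90% inhibition; n ≥ 3.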

A further data set concerns human erythrocytes. In words: In vitro hemolytic activity. It counts as cell-based. The following applies: 1 h. In outline:
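Serial peptide dilutions in PBS mixed 1:1 with fresh erythrocytes, 1 h at 37 °C; supernatant OD550 measured after centrifugation. Hemolysis normalized to 0.1% Triton X-100 (full lysis) and PBS (none); HC10 and HC50 taken from dose–response curves.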

A further data set has as its system HaCat cell line. In words: In vitro HaCat cytotoxicity (MTT). It counts as cell-based, human. The following applies: 21 h exposure, OD570, relative to untreated control. In outline: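 HaCat keratinocytes were first screened with peptide at 256 μg/mL for 21 h at 37 °C, and a dose-response was run only when cytotoxicity reached p < 0.0001. Viability was read by MTT (3 h, OD570) relative to untreated control, and LC50 was taken from the dose-response curves.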

Data set [1] in a line: RP-HPLC ElutionTime as indicator of hydrophobicity. It is filed as physicochemical. The following applies: indicator of overall hydrophobicity; semipreparative RP-HPLC, Waters SymmetryPrep C8, water/ACN gradient with 0.1% TFA, 8 mL/min, 25 °C, 254 nm.
Where [2] appears, read: human erythrocytes in PBS, 37 °C, OD550, from dose response curves.

Regarding `CC(C)[C@H](NC(=O)CNC(=O)[C@H](CCCNC(=N)N)NC(=O)[C@H](CCCNC(=N)N)NC(=O)[C@H](CS)NC(=O)[C@@H](NC(=O)[C@H](CS)NC(=O)[C@@H](N)CCCNC(=N)N)C(C)C)C(=O)N[C@@H](CS)C(=O)N[C@@H](CCCNC(=N)N)C(=O)N[C@@H](CS)C(=O)N[C@H](C(=O)N[C@@H](CS)C(=O)N[C@@H](CCCNC(=N)N)C(=O)N[C@@H](CCCNC(=N)N)C(N)=O)C(C)C` [BTD15a] (H-RCVCRRGVCRCVCRR-NH2; N-terminus assumed), the “Modal MIC” value in the data set on P. aeruginosa NCTC 13437 (MHB, 37 °C, 20 h, OD600, min. three biological repeats) is given as above 128 µg/mL. Further, in the data set with P. aeruginosa NCTC 13437 (shown in µM), the “Modal MIC” value is above 70.2 µM. In addition, in the data set on human erythrocytes (setting [2]), the “HC10 (concentration causing 10% hemolysis)” value is given as 9 µg/mL and the “HC50 (concentration causing 50% hemolysis)” value turned out to be 33 µg/mL. In addition, the “% hemolysis” value with human erythrocytes (red cells of human, 256 μg/mL) is 100%. Further, in the data set on HaCat cell line, the “% HaCat cell death at initial screening (256μg/mL) ± SD” value is listed as 20%. Moreover, in data set [1], the “ElutionTime (RP-HPLC retention time of major fraction)” value is 20 min.
